This is an account of results in US20080220100A1, “Fermented panax notoginseng solution with anti-cancer effects and manufacture method thereof” (MICROBIO COMPANY LTD., TAIWAN, priority 2007, published 2008).

One data set deals with Hep 3B/T2 cancer cells. The data set is described as follows: SCID mice injected with Hep 3B/T2 cancer cells, fed fermented product for 35 days. Type of data set: in vivo. Particulars: positive control group. How it is done: SCID mice with 18 to 22 g body weight were classified into 5 groups and 10 mice per group. […] The tumor size of the SCID mice was measured every 3 to 4 days, and the weight of the heart, liver, spleen, lung, and kidney of the SCID mice was measured when the experiment was finished.

Data set [1] in a line: Anti-oxidation capacity relative to vitamin E. The note with it: vitamin E defined to 100; medium with increasing share of black bean powder. From the text: The same procedure carried out in Example 2 was repeated except that the content of the Panax notoginseng medium was changed. The content of the Panax notoginseng medium included 4 types: ¼ Panax notoginseng powder and ¾ black powder, ½ Panax notoginseng powder and 1/2 black powder, ¾ Panax notoginseng powder and ¼ black powder, and all Panax notoginseng powder.

In the data set with Hep 3B/T2 cancer cells, `O=c1[nH]cc(F)c(=O)[nH]1` [5-FU, fluorouracil] displayed a Heart weight of 143.2 ± 14.6 mg, a Kidney weight of 328.2 ± 26.2 mg, a Liver weight of 1171.3 ± 103.0 mg and a Lung weight of 215.8 ± 23 mg. In the data set with Hep 3B/T2 cancer cells, this molecule yielded a Spleen weight of 118.7 ± 35.6 mg and a Tumor weight of 376.1 ± 232.9 mg.
Molecule vitamin E registered an anti-oxidation capacity in data set [1] of 100.
